Assays:
[1] = tested on: Diet-induced obese (DIO) mice; assay: Diet-induced obese (DIO) mice with hepatic steatosis, four weeks treatment (first example); format: in vivo; settings: ezetimibe 5 mg/kg/day, formula XIIIA 12 mg/kg/day, or both
Procedure: The mice were sacrificed and the liver weight, liver triglyceride level and liver free cholesterol content were determined for each group were determined and summarized in FIGS. 1 to 4.

DIO mice = assay: DIO C57BL/6J mice on high fat/cholesterol diet, 4 weeks ezetimibe in diet (Example 3); format: in vivo; set-up: liver to body weight ratio (FIG. 6), top dose group: dose or concentration left out as unconfirmed
Excerpt: C57BL/6J mice were fed a high fat/cholesterol diet (Research Diets, with 45% Kcal fat and 0.12% w/w cholesterol) for 7 months after weaning.

Niemann-Pick type C mice = settings: ezetimibe treatment; cited from earlier work
[2] = tested on: Diet induced obese (DIO) mice; assay: DIO mice with hepatic steatosis and fibrosis, plasma ALT after four weeks treatment (Example 2); format: in vivo; settings: formula XIIID 9 mg/kg/day, alone or with ezetimibe 2 mg/kg/day
Procedure: Diet induced obese (DIO) mice, which had developed obesity, dyslipidemia, hepatic steatosis and fibrosis by feeding them a western diet containing 45% fat and 0.12% cholesterol for seven months, were divided into four groups and treated with nothing (control), ezetimibe (formula II) (2 mg/kg/day), the compound of formula XIIID (9 mg/kg/day) or a combination of ezetimibe (2 mg/kg/day) and compound of formula XIIID (9 mg/kg/day) for four weeks. The mice were sacrificed and the plasma alanine aminotransferase (ALT) enzyme activities, a plasma biomarker of liver injury with steatohepatitis, were determined for each group, this is summarized in FIG. 5.

[3] = after 4 weeks of ezetimibe treatment
[4] = after 4 weeks, ezetimibe-treated DIO mice compared to the control
[5] = after 4 weeks, livers from ezetimibe-treated mice
[6] = ezetimibe 1.6 and 5.3 mg/kg/day, compared to the control group

## O=C1[C@H](CC[C@H](O)c2ccc(F)cc2)[C@@H](c2ccc(O)cc2)N1c1ccc(F)cc1 [ezetimibe]
[1]
  effect in treating NAFLD (conclusion from FIGS. 1 to 4): effective in treating NAFLD
[1]; vs control
  liver cholesteryl ester content (FIG. 3): decrease in liver cholesteryl ester content
  liver free cholesterol content (FIG. 4): decrease in liver cholesterol content
  liver triglyceride levels (FIG. 2): decrease in liver triglyceride levels
  liver weight (liver to body weight ratio, FIG. 1): decrease in liver weight
DIO mice; [3]
  HDL-C: not changed
  LDL-C: significant decreases
  VLDL-C: significant decreases
  reduction of plasma triglyceride: 15%
  reduction of total plasma cholesterol: 30%
DIO mice; [4]
  liver to body weight ratio: significantly reduced
  liver wet weight: significantly reduced
DIO mice; [5]
  liver cholesteryl esters: significantly lower
  liver free cholesterol: significantly lower
  liver triglyceride: significantly lower
DIO mice; all groups that received ezetimibe, 4 weeks
  liver triglyceride levels (FIG. 7), across doses: dose-dependent decrease in liver triglyceride levels
DIO mice; ezetimibe 0.5, 1.6 and 5.3 mg/kg/day, 4 weeks
  liver to body weight ratio (FIG. 6), across doses: dose-dependent decrease in liver to body weight ratio
DIO mice; [6]
  liver cholesterol content (FIG. 9): significant decrease in liver cholesterol content
  liver cholesteryl ester content (FIG. 8): significant decrease in liver cholesteryl ester content
DIO mice; ezetimibe, 4 weeks
  liver to body weight ratio (FIG. 6), top dose group: greatest decline in liver to body weight ratio
DIO mice; ezetimibe-treated vs control DIO mice
  VLDL-TG production rates: comparable
Niemann-Pick type C mice
  hepatic cholesterol accumulation: reduced hepatic cholesterol accumulation
  histological abnormalities: improved histological abnormalities
  liver enzymes: improved

## CO/N=C(/c1ccccn1)C1CCN(C(=O)C2(F)CCN(Cc3ccnc(N)c3)CC2)CC1 [formula XIIID]
[2]
  plasma alanine aminotransferase (ALT) enzyme activities (FIG. 5): decrease in plasma ALT

Source: patent US20070161578A1, “Treatment of nonalcoholic fatty liver disease using cholesterol lowering agents and/or H3 receptor antagonist/inverse agonist” (priority 2005, published 2007)
